In patent US12427212B2, “Nectin-4 binding miniproteins, conjugates and uses thereof” (Aktis Oncology, Inc., priority 2023, dated 2025):
Bridges are numbered along the chain shown (N, C = ends). Primed or numbered codes have the meaning given here. [ ]: non-standard residue; d: D form. The star is where a group is joined. Arg(NO2) = N=C(NCCC[C@H](N)C(=O)O)N[N+](=O)[O-]; Biotin = O=C1N[C@H]2[C@H](CS[C@H]2CCCCC(=O)*)N1; Lys(Me3) = C[N+](C)(C)CCCC[C@H](N)C(=O)O; Lys(iPr) = CC(C)NCCCC[C@H](N)C(=O)O; Lys(Me2) = CN(C)CCCC[C@H](N)C(=O)O; Cit = NC(=O)NCCC[C@H](N)C(=O)O; Lys(Me) = CNCCCC[C@H](N)C(=O)O; PEG4 = NCCOCCOCCOCCOCCC(=O)O; PEG4″ = 4(ethylene glycol); PEG4′ = not defined here

Test system: Opossum kidney proximal tubule cells
Experiment: Proximal tubule epithelial cell uptake assay
Type: cell-based
Conditions: for % Uptake of C306: Table 10B, modified lysine miniproteins; for % Uptake of C306 / % Uptake of C306 (Control): relative to control miniprotein C306; for % Uptake of C306 (Control): Table 10A, mean percent uptake in opossum kidney cells
Protocol: FIG. 8 is a bar graph of the percent uptake of exemplary miniproteins tested at 20 µM in a proximal tubule epithelial cell assay vs 20 μM control peptide set at 100%. […]
Opossum kidney proximal tubule cells were plated in the upper chamber of 24-well transwell plates containing 600 μL of growth media in the lower chamber and were incubated overnight at 37° C., in 5% CO2. The following day, the media was changed, and cells were incubated an additional 24 h with orbital shaking at 146 RPM. Next, cells were washed and treated in duplicates with biotinylated exemplary miniproteins pre-complexed with streptavidin-AF647 for 1 h at 37° C., and 5% C02 with continuous orbital shaking. Following incubation, cells were washed three times with 1×PBS and lysed with RIPA buffer containing protease and phosphatase inhibitor cocktail and a universal nuclease for 30 minutes. Uptake was measured on 100 μL of lysates using a fluorimeter. Mean % uptake values of control miniprotein C306 in the presence of exemplary miniproteins are provided in TABLE 10A and summarized in FIG. 8.
Uptake of engineered Nectin-4 miniproteins with further modified lysine residues (C298-C304, as described in Example 4B) was evaluated. Percent uptake of these exemplary Nectin-4-targeting miniproteins and C251 were determined against a control miniprotein, C306, using opossum kidney proximal tubule cells as described in Example 18A. Percent uptake of C298, which has an unmodified lysine (K) at amino acid position 26 (along the length of the miniprotein sequence. SEQ ID NO: 162), was 37% in the presence of […]. All other miniproteins having a modified lysine (modified with one or more small alkyl groups of monomethyl, dimethyl, trimethyl, or isopropyl group) had (i) kidney uptake similar to that of C251 and (ii) reduced uptake as compared to C298, which has an unmodified lysine at position 26.

[1] = opossum kidney proximal tubule cells

Row | Compound | % Uptake of C306 [1] [%] | Percent uptake of control miniprotein C306 in the presence of exemplary miniprotein (opossum kidney proximal tubule cells, 1 h at 37° C.) [%] | % Uptake of C306 (Control) (1 h at 37° C.)
1 | CC[C@H](C)[C@@H]1NC(=O)[C@H](Cc2ccc(O)cc2)NC(=O)[C@H](CCC(N)=O)NC(=O)[C@@H]2CSSC[C@@H](C(=O)N[C@@H](CO)C(=O)O)NC(=O)CNC(=O)[C@H](CC(C)C)NC(=O)[C@H](CC(N)=O)NC(=O)[C@H](CC(=O)O)NC(=O)[C@H](CC(C)C)NC(=O)[C@H]([C@@H](C)CC)NC(=O)[C@H](CCC(=O)O)NC(=O)[C@H](CCC(=O)O)NC(=O)[C@H]([C@@H](C)CC)NC(=O)[C@H](CSSC[C@H](NC(=O)CCOCCOCCOCCOCCNC(=O)CCCC[C@@H]3SC[C@@H]4NC(=O)N[C@@H]43)C(=O)N[C@@H](CCC(=O)O)C(=O)N[C@@H](Cc3ccc(O)cc3)C(=O)N[C@@H](CC(=O)O)C(=O)N[C@@H](CCC(=O)O)C(=O)N[C@@H](CCC(=O)O)C(=O)N[C@@H](Cc3ccccc3)C(=O)N[C@@H](Cc3ccccc3)C(=O)N[C@@H]([C@@H](C)O)C(=O)N[C@@H](C)C(=O)N[C@@H](CC(C)C)C(=O)N[C@@H](C)C(=O)N[C@@H](CCCNC(=N)N)C(=O)N[C@@H](CC(C)C)C(=O)N[C@@H](CCCNC(=N)N)C(=O)NCC(=O)NCC(=O)N[C@@H](CC(=O)O)C(=O)N[C@@H]([C@@H](C)CC)C(=O)N2)NC(=O)[C@H](CC(C)C)NC(=O)[C@H](C)NC(=O)[C@@H]2CCCN2C(=O)[C@H](CC(C)C)NC(=O)[C@H](Cc2ccc(O)cc2)NC(=O)[C@H](CCC(N)=O)NC(=O)[C@H](Cc2ccccc2)NC(=O)[C@H](CCCCN)NC(=O)[C@H](C)NC(=O)[C@H](CCC(N)=O)NC1=O [Compound C298] | 37 | 37 | 
2 | CC[C@H](C)[C@@H]1NC(=O)[C@H](Cc2ccc(O)cc2)NC(=O)[C@H](CCC(N)=O)NC(=O)[C@@H]2CSSC[C@@H](C(=O)N[C@@H](CO)C(=O)O)NC(=O)CNC(=O)[C@H](CC(C)C)NC(=O)[C@H](CC(N)=O)NC(=O)[C@H](CC(=O)O)NC(=O)[C@H](CC(C)C)NC(=O)[C@H]([C@@H](C)CC)NC(=O)[C@H](CCC(=O)O)NC(=O)[C@H](CCC(=O)O)NC(=O)[C@H]([C@@H](C)CC)NC(=O)[C@H](CSSC[C@H](NC(=O)CCOCCOCCOCCOCCNC(=O)CCCC[C@@H]3SC[C@@H]4NC(=O)N[C@@H]43)C(=O)N[C@@H](CCC(=O)O)C(=O)N[C@@H](Cc3ccc(O)cc3)C(=O)N[C@@H](CC(=O)O)C(=O)N[C@@H](CCC(=O)O)C(=O)N[C@@H](CCC(=O)O)C(=O)N[C@@H](Cc3ccccc3)C(=O)N[C@@H](Cc3ccccc3)C(=O)N[C@@H]([C@@H](C)O)C(=O)N[C@@H](C)C(=O)N[C@@H](CC(C)C)C(=O)N[C@@H](C)C(=O)N[C@@H](CCCNC(=N)N)C(=O)N[C@@H](CC(C)C)C(=O)N[C@@H](CCCNC(=N)N)C(=O)NCC(=O)NCC(=O)N[C@@H](CC(=O)O)C(=O)N[C@@H]([C@@H](C)CC)C(=O)N2)NC(=O)[C@H](CC(C)C)NC(=O)[C@H](C)NC(=O)[C@@H]2CCCN2C(=O)[C@H](CC(C)C)NC(=O)[C@H](Cc2ccc(O)cc2)NC(=O)[C@H](CCC(N)=O)NC(=O)[C@H](Cc2ccccc2)NC(=O)[C@H](CCCCNC)NC(=O)[C@H](C)NC(=O)[C@H](CCC(N)=O)NC1=O [Compound C299] | 3 |  | 
3 | CC[C@H](C)[C@@H]1NC(=O)[C@H](Cc2ccc(O)cc2)NC(=O)[C@H](CCC(N)=O)NC(=O)[C@@H]2CSSC[C@@H](C(=O)N[C@@H](CO)C(=O)O)NC(=O)CNC(=O)[C@H](CC(C)C)NC(=O)[C@H](CC(N)=O)NC(=O)[C@H](CC(=O)O)NC(=O)[C@H](CC(C)C)NC(=O)[C@H]([C@@H](C)CC)NC(=O)[C@H](CCC(=O)O)NC(=O)[C@H](CCC(=O)O)NC(=O)[C@H]([C@@H](C)CC)NC(=O)[C@H](CSSC[C@H](NC(=O)CCOCCOCCOCCOCCNC(=O)CCCC[C@@H]3SC[C@@H]4NC(=O)N[C@@H]43)C(=O)N[C@@H](CCC(=O)O)C(=O)N[C@@H](Cc3ccc(O)cc3)C(=O)N[C@@H](CC(=O)O)C(=O)N[C@@H](CCC(=O)O)C(=O)N[C@@H](CCC(=O)O)C(=O)N[C@@H](Cc3ccccc3)C(=O)N[C@@H](Cc3ccccc3)C(=O)N[C@@H]([C@@H](C)O)C(=O)N[C@@H](C)C(=O)N[C@@H](CC(C)C)C(=O)N[C@@H](C)C(=O)N[C@@H](CCCNC(=N)N)C(=O)N[C@@H](CC(C)C)C(=O)N[C@@H](CCCNC(=N)N)C(=O)NCC(=O)NCC(=O)N[C@@H](CC(=O)O)C(=O)N[C@@H]([C@@H](C)CC)C(=O)N2)NC(=O)[C@H](CC(C)C)NC(=O)[C@H](C)NC(=O)[C@@H]2CCCN2C(=O)[C@H](CC(C)C)NC(=O)[C@H](Cc2ccc(O)cc2)NC(=O)[C@H](CCC(N)=O)NC(=O)[C@H](Cc2ccccc2)NC(=O)[C@H](CCCCN(C)C)NC(=O)[C@H](C)NC(=O)[C@H](CCC(N)=O)NC1=O [Compound C300] | 3 |  | 
4 | CC[C@H](C)[C@@H]1NC(=O)[C@H](Cc2ccc(O)cc2)NC(=O)[C@H](CCC(N)=O)NC(=O)[C@@H]2CSSC[C@@H](C(=O)N[C@@H](CO)C(=O)O)NC(=O)CNC(=O)[C@H](CC(C)C)NC(=O)[C@H](CC(N)=O)NC(=O)[C@H](CC(=O)O)NC(=O)[C@H](CC(C)C)NC(=O)[C@H]([C@@H](C)CC)NC(=O)[C@H](CCC(=O)O)NC(=O)[C@H](CCC(=O)O)NC(=O)[C@H]([C@@H](C)CC)NC(=O)[C@H](CSSC[C@H](NC(=O)CCOCCOCCOCCOCCNC(=O)CCCC[C@@H]3SC[C@@H]4NC(=O)N[C@@H]43)C(=O)N[C@@H](CCC(=O)O)C(=O)N[C@@H](Cc3ccc(O)cc3)C(=O)N[C@@H](CC(=O)O)C(=O)N[C@@H](CCC(=O)O)C(=O)N[C@@H](CCC(=O)O)C(=O)N[C@@H](Cc3ccccc3)C(=O)N[C@@H](Cc3ccccc3)C(=O)N[C@@H]([C@@H](C)O)C(=O)N[C@@H](C)C(=O)N[C@@H](CC(C)C)C(=O)N[C@@H](C)C(=O)N[C@@H](CCCNC(=N)N)C(=O)N[C@@H](CC(C)C)C(=O)N[C@@H](CCCNC(=N)N)C(=O)NCC(=O)NCC(=O)N[C@@H](CC(=O)O)C(=O)N[C@@H]([C@@H](C)CC)C(=O)N2)NC(=O)[C@H](CC(C)C)NC(=O)[C@H](C)NC(=O)[C@@H]2CCCN2C(=O)[C@H](CC(C)C)NC(=O)[C@H](Cc2ccc(O)cc2)NC(=O)[C@H](CCC(N)=O)NC(=O)[C@H](Cc2ccccc2)NC(=O)[C@H](CCCCNC(C)C)NC(=O)[C@H](C)NC(=O)[C@H](CCC(N)=O)NC1=O [Compound C301] | 3 |  | 
5 | C257: exemplary Nectin-4 miniprotein compound ({Biotin-PEG4″}-CDYDEQFFTALKRLRGADICEYIQA[Lys(Me3)]FQYLPGECIEEILDNLGCS-OH; disulfide 1-34, 20-44) [Compound C257] |  |  | 7.99%
6 | C262: exemplary Nectin-4 miniprotein compound ({Biotin-PEG4″}-CEYDEQFFTALARLRGADICEYIQA[Lys(Me3)]FQYLPGLCIEEILDNLGCS-OH; disulfide 1-34, 20-44) [Compound C262] |  |  | 1.27%
7 | C281 ({Biotin-PEG4′}-CEYDEQFFTALARLRGGDICEYIQA[Cit]FQYLPGLCIEEILDNLGCS-OH; disulfide 1-34, 20-44) [Compound C281] |  |  | 0.006%
8 | C282 ({Biotin-PEG4″}-CEYDEQFFTALARLRGGDICEYIQA[Arg(NO2)]FQYLPGLCIEEILDNLGCS-OH; disulfide 1-34, 20-44) [Compound C282] |  |  | 2.14 (n = 1) %
9 | C306: control miniprotein of the proximal tubule cell uptake assay ({Biotin-PEG4′}-CEYDEEFFTALKRLRGGDICYYIKKKFKKVPKLCIEEILDKLGC-NH2; disulfide 1-34, 20-44) [Compound C306, reference compound] |  |  | 100%
10 | {Biotin-PEG4}-CEYDEEFFTAL[Lys(Me2)]RLRGGDICQYIQA[Lys(Me3)]FQYLPALCIEEILDNLGCS-OH (disulfide 1-34, 20-44) [Compound C303] | 3 |  | 
11 | {Biotin-PEG4}-CEYDEEFFTAL[Lys(Me)]RLRGGDICQYIQA[Lys(Me3)]FQYLPALCIEEILDNLGCS-OH (disulfide 1-34, 20-44) [Compound C302] | 2 |  | 
12 | {Biotin-PEG4}-CEYDEEFFTAL[Lys(iPr)]RLRGGDICQYIQA[Lys(Me3)]FQYLPALCIEEILDNLGCS-OH (disulfide 1-34, 20-44) [Compound C304] | 2 |  | 
13 | {Biotin-PEG4}-CEYDEQFFTALARLRGGDICEYIQARFQYLPGLCIEEILDNLGCS-OH (disulfide 1-34, 20-44) [Compound C264] |  |  | 0.859%
